≈ marks a conversion by molar mass, not a printed value. Where “and” joins values, the source holds several entries; their conditions need not be identical. Identical values can stand only once. Like-named read-outs stand apart in the source and are kept apart here.
Tests used:
[1] = Solubility tests in water and buffered aqueous solutions; format: physicochemical; conditions: for appearance in water: about 7 μM
[2] = water, reported [8]; cited from earlier work
Absorption spectra = format: physicochemical; conditions: for ε (molar absorbance): 20° C.
Experimental: Double beam Perkin Elmer Lambda 750 UV/Vis spectrophotometer equipped with a thermostated cuvette holder was used to record the absorption spectra over a wavelength range 200-800 nm at 20° C.
The quartz cuvettes with 1 cm light path used were from Hellma.

[3] = Solubility tests in water and buffered aqueous solutions; format: physicochemical; conditions: for solubility: 50 mM NaP buffer, pH 8.0
Description: The excellent solubility of the bare chromophore in aqueous solution already confers to Hydrodabcyl several practical advantages, e.g., aqueous solutions of Hydrodabcyl are easier to prepare and glassware can be more readily cleansed. Nevertheless, in most of applications the chromophores are linked to the molecules of interest. For example, to monitor protease activity chromophores are usually linked to the peptidic substrate. Both dabcyl and Hydrodabcyl can be easily coupled to an amino group through a standard amide bond formation. […] To investigate the behavior of dabcyl and Hydrodabcyl coupled to an amino acid bearing an amino group, dabcyl and Hydrodabcyl were linked to the amino group of a Lys side chain, and the solubility of the Lys-dabcyl and Lys-Hydrodabcyl moieties in a buffered aqueous solution at pH 8 were tested.
Buffered solutions (50 mM sodium phosphate) have been prepared at four different pH: 8.0, 7.0, 6.0 and 5.5, respectively. The amount of Hydrodabcyl required to reach a concentration of 5 mM was immersed in each buffer solution and kept for 1 h at 30° C. in an ultrasonic bath. […] To confirm its solubility, the absorbance of Hydrodabcyl was monitored as function of its concentration. Since the stock solution was too concentrated to be measured directly, three diluted solutions with different concentrations (10 μM, 20 μM and 30 μM) were prepared from each stock solution at pH 8.0, pH 7.0 and pH 6.0. The aliquots have been taken from different part of the volume of the stock solution to test the homogeneity.
To reach complete solubility at pH<6.0, the pH of the stock solution (5 mM range) at pH 7.0 was decreased at the desired value with few drops of 5M HCl. Following gradual acidification of the medium the mM solution of Hydrodabcyl remained clear till pH 4.3. […] At pH<4.3 Hydrodabcyl precipitates.

EaHy.926 = test: Cytotoxicity assay, EaHy.926; format: cell-based; conditions: Homo sapiens, EA.hy 926, incubation for 72 hours, 5 to 100 μM
Experimental: (§1) Three different cell culture types were incubated with various concentrations (from 5 to 100 μM) of Hydrodabcyl.

[4] = system: circular and linear double-stranded DNA pBR322; test: Electrophoretic Mobility Shift Assay (EMSA); format: binding; conditions: 24 h incubation, 0, 5, 10, 25, 50 μM, agarose gel
Experimental: The DNA was incubated for 24 hours with various concentrations (0, 5, 10, 25, 50 μM) of (a) doxorubicin and (b) Hydrodabcyl. FIGS. 6a and 6b show the ethidium bromide staining of DNA separated by agarose gel electrophoresis. […] The DNA was incubated for 24 hours with various concentrations (0, 5, 10, 25, 50 μM) of (a) doxorubicin and (b) Hydrodabcyl. FIGS. 7a and 7b show the ethidium bromide staining of DNA separated by agarose gel electrophoresis. […] Circular and linear double-stranded DNA was incubated with various concentrations of Hydrodabcyl and doxorubicin (a known intercalating substance). After 24 h of incubation time, agarose gel electrophoresis was carried out.

CHF = test: Cytotoxicity assay, CHF; format: cell-based; conditions: incubation for 72 hours, 5 to 100 μM
Experimental: as §1

[5] = system: oocytes of Xenopus laevis; test: Influence on embryogenesis of injected oocytes; format: in vivo; conditions: conclusion from Table 2
Experimental: Two sorts of labelled molecules were injected into oocytes of Xenopus laevis: • A molecule labelled with monobromobimane (mBBr; a fluorescent dye, which emits light in the absorption spectrum of Hydrodabcyl); the molecule is called Substrate-Bim • A molecule labelled with mBBr and Hydrodabcyl (a fluorescence quencher); the molecule is called Bim-Substrate-Hydrodabcyl The effect on embryogenesis of the molecules injected into the oocytes as described in Example 5 was observed.

HT-29 = test: Cytotoxicity assay, HT-29; format: cell-based; conditions: Homo sapiens, incubation for 72 hours, 5 to 100 μM
Experimental: as §1

[6] = Stability under light exposure; format: physicochemical; conditions: for effect of light exposure on absorption spectrum: 17.5 μM in DMSO, 5 minutes, 60 W tungsten lamp; for absorbance under 2-hour continuous irradiation at absorption maximum: spectrophotometer beam, 7200 s
Experimental: The effect of exposure to the light beam of a commercial spectrophotometer was tested to mimic the common experimental condition.
One solution of dabcyl and one of Hydrodabcyl, both at 17.5 μM in DMSO prepared in the dark, were exposed for 5 minutes to the light of a common 60 W tungsten lamp.

[7] = sodium phosphate buffer, aqueous buffer, thermodynamic from solid, read-out: Solubility

Question: For `NCCCC[C@H](N)C(=O)O` [L-Lys, reference compound], which solubility ([1]; water, converted from 5.8 g per 1 kg) is on record?
Answer: about 40 mM

Question: And the solubility [2]?
Answer: 5.8 g per 1 kg of water

Question: What does the source list for `CN(C)c1cc(O)c(/N=N/c2ccc(C(=O)O)c(O)c2)c(O)c1` [Hydrodabcyl, 4-((4′-(dimethylamino)2′,6′-dihydroxyphenyl)azo)2-hydroxybenzoic acid]?
Answer: ε (molar absorbance) (Absorption spectra; 50 mM sodium phosphate buffer pH=8.0, 2×10^−5 M, at 445 nm): 43000 ± 1000 L/mol/cm; λmax (Absorption spectra; 2×10^−5 M in DMSO at 20° C.): 470 nm; ε470 (molar absorbance) (Absorption spectra; DMSO): 37000 M⁻¹ cm⁻¹; ε (molar absorbance) (Absorption spectra; DMSO, 2×10^−5 M, at 470 nm): 37000 ± 1000 L/mol/cm; ε445 (molar absorbance) (Absorption spectra; aqueous solution): 43000 M⁻¹ cm⁻¹; λmax (Absorption spectra; aqueous solution, 50 mM sodium phosphate buffer pH=8.0, 20° C.): 445 nm; dissolution at 5 mM, direct preparation ([3]; 50 mM sodium phosphate pH 5.5, 1 h at 30° C. ultrasonic bath): not completely soluble; dissolution at 5 mM, direct preparation ([3]; 50 mM sodium phosphate pH 6.0, 1 h at 30° C. ultrasonic bath): Clear solutions; dissolution at 5 mM, direct preparation ([3]; 50 mM sodium phosphate pH 7.0, 1 h at 30° C. ultrasonic bath): Clear solutions; dissolution at 5 mM, direct preparation ([3]; 50 mM sodium phosphate pH 8.0, 1 h at 30° C. ultrasonic bath): Clear solutions; solubility thermodynamic ([3]; aqueous buffer, thermodynamic from solid, buffered aqueous solution at pH 8, read-out: concentration of saturated solution): 25000 µM (≈ 7930 µg/mL); solubility [3, 7]: 25400 µM (≈ 8060 µg/mL); solubility ([1]; thermodynamic from solid, Water, 20° C., pH = 4.5, read-out: Solubility): 571 µM (≈ 181 µg/mL); appearance in water ([1]; water): clear solution; IC50 (EaHy.926): > 50 µM; shift of DNA bands / intercalation into DNA [4]: does not intercalate or bind to the DNA; IC50 (CHF): > 100 µM; influence on embryogenesis [5]: does not influence embryogenesis; IC50 (HT-29): > 50 µM; effect of light exposure on absorption spectrum [6]: no effect on the absorption spectrum; absorbance under 2-hour continuous irradiation at absorption maximum ([6]; DMSO, 20° C.): constant signal

Question: Which solubility [3] does the source give for `CN(C)c1ccc(N=Nc2ccc(C(=O)NCCCCC(N)C(=O)O)cc2)cc1` (stereo not shown) [Lys-dabcyl, reference compound] here?
Answer: 7.6 µM and 7.62 µM

Question: Which “shift of DNA bands / intercalation into DNA” value [4] does the source give for `COc1cccc2c1C(=O)c1c(O)c3c(c(O)c1C2=O)C[C@@](O)(C(=O)CO)C[C@@H]3O[C@H]1C[C@H](N)[C@H](O)[C@H](C)O1` [doxorubicin, reference compound] here?
Answer: shift of the DNA bands with increasing doxorubicin concentration

Question: For `CN(C)c1ccc(/N=N/c2ccc(C(=O)O)cc2)cc1` [dabcyl, 4-(4′-dimethylamino-phenylazo)benzoic acid], which λmax (Absorption spectra; 2×10^−5 M in DMSO at 20° C.) is on record?
Answer: 451 nm

Question: What about the solubility [3, 7] of the same compound?
Answer: 541 µM (≈ 146 µg/mL)

Question: What about the appearance in water ([1]; water) of the same compound?
Answer: precipitation

Question: And the “effect of light exposure on absorption spectrum” value [6]?
Answer: strongly modify the absorption spectrum

Question: What about the “absorbance under 2-hour continuous irradiation at absorption maximum” value ([6]; DMSO, 20° C.) of the same compound?
Answer: constant signal

Question: And the “time in the dark to recover original spectrum” value ([6]; after 5 min 60 W tungsten lamp, DMSO, 20° C.)?
Answer: 10 min
